Data reported in PubChem BioAssay (NCI).
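Each compound was tested at five concentrations against cells in 96-well plates for 48 hours. Here, GI50 denotes the concentration required for 50% inhibition of growth. TGI: total growth inhibition.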

Experiments:
Experiment in all cases: NCI tumour cell line growth inhibition, 48 h
[1] = system: HL-60(TB) leukemia
[2] = system: HT29 colon
[3] = system: KM12 colon
[4] = system: MALME-3M melanoma
[5] = system: RPMI-8226 leukemia
[6] = system: RXF 393 renal
[7] = system: SF-295 CNS
[8] = system: SK-MEL-2 melanoma
[9] = system: SN12C renal
[10] = system: SNB-19 CNS

| SMILES | TGI [1] [µM] | TGI [2] [µM] | TGI [3] [µM] | TGI [4] [µM] | TGI [5] [µM] | TGI [6] [µM] | TGI [7] [µM] | TGI [8] [µM] | TGI [9] [µM] | TGI [10] [µM] | GI50 [1] [µM] | GI50 [2] [µM] | GI50 [3] [µM] | GI50 [4] [µM] | GI50 [5] [µM] | GI50 [6] [µM] | GI50 [8] [µM] | GI50 [9] [µM] | GI50 [10] [µM] | GI50 [7] [µM] |
| --- | --- | --- | --- | --- | --- | --- | --- | --- | --- | --- | --- | --- | --- | --- | --- | --- | --- | --- | --- | --- |
| CC1CCP(=O)(c2ccccc2)c2ccccc21 (stereo not drawn) | 41.1 | > 100 | > 100 | > 100 | > 100 | > 100 | > 100 | > 100 | 85.6 | > 100 | – | – | – | – | – | – | – | – | – | – |
| CC(=O)NNc1nc(C)c(C(=O)NNC(=O)C(=O)Nc2c(C)cccc2C)s1 | 77.6 | > 100 | > 100 | > 100 | > 100 | 88.2 | > 100 | > 100 | > 100 | > 100 | – | – | – | – | – | – | – | – | – | – |
| COc1ccccc1/C=C1\CCC(CCN(C)C)(C2=CCCC2)C1=O (stereo not drawn) | 45.5 | 39.3 | 33 | 30.3 | 41.3 | 27.3 | 31.7 | 35.6 | 50.3 | 31.1 | – | – | – | – | – | – | – | – | – | – |
| CCN(CC)CCNc1ccc([N+](=O)[O-])c2sc3ccccc3c(=O)c12 | 3.27 | 1.59 | 2.55 | 3.63 | 2.84 | 3.03 | – | 5.53 | 11.4 | 13 | 0.783 | 0.392 | 1.19 | 1.47 | 0.915 | 1.43 | 1.21 | 1.07 | 2.22 | – |
| CCc1n(Cc2ccc3ccccc3n2)cc[n+]1Cc1ccc2ccccc2n1 | 0.262 | 12 | 11.3 | 0.973 | 10.1 | 13 | 20.1 | 2.11 | 7.75 | 10.7 | 0.0329 | 0.263 | 0.185 | 0.128 | 0.0172 | 0.982 | 0.217 | 0.317 | 0.0687 | 2.81 |
| COc1ccc(-c2oc3c(OC)c(OC)c(OC)c(O)c3c(=O)c2OC)cc1OC | 26.1 | > 78.2 | > 100 | 97.1 | 59.3 | 87.4 | > 76.5 | 66.2 | > 100 | > 100 | – | – | – | – | – | – | – | – | – | – |
| CC1OC(OCC2OC(Oc3c(-c4ccc(O)cc4)oc4cc(O)cc(O)c4c3=O)C(OC3OC(C)C(O)C(O)C3O)C(O)C2O)C(O)C(O)C1O (stereo not drawn) | > 100 | > 100 | > 100 | > 100 | > 81.3 | > 100 | > 100 | > 100 | > 100 | > 100 | – | – | – | – | – | – | – | – | – | – |
| O=C1C(c2c[nH]c3ccccc23)=C(c2c[nH]c3ccccc23)C(=O)N1O | > 25 | > 25 | > 25 | > 25 | > 25 | > 25 | > 25 | > 25 | > 25 | > 25 | > 25 | > 25 | > 25 | > 25 | > 25 | > 22.7 | > 25 | > 25 | > 25 | > 25 |
| COc1ccc2c(c1)C(=O)c1c-2n(CCCN=[N+]=[N-])c(=O)c2cc(N(C)C)ccc12 | > 100 | > 100 | > 100 | > 100 | > 100 | 80.8 | > 100 | > 100 | > 100 | > 100 | > 100 | > 100 | 3.66 | > 100 | > 100 | 5.16 | > 100 | > 100 | > 100 | > 100 |
| CC1(C)CC[C@H](Nc2ncc(C(F)(F)F)c(-c3c[nH]c4c(P(C)(C)=O)c(C#N)ccc34)n2)CN1 | 2.37 | > 27.7 | 13.2 | 13 | 3.43 | 4 | 13.5 | 6.9 | 32.2 | > 54.3 | < 0.01 | < 0.0259 | 0.19 | < 0.0128 | < 0.01 | 0.777 | 0.283 | 0.141 | 0.0439 | 0.0267 |
| Clc1ccc(Cc2nc3ccccc3s2)c(Cl)c1 | 35.3 | 40.3 | 34.9 | 30.9 | 48.5 | 36 | 31.8 | 32.7 | 30.3 | 49.1 | – | – | – | – | – | – | – | – | – | – |
| C=C(CCCCCCCCC)CC(=O)SCCNC(=O)CCNC(=O)C(O)C(C)(C)COP(=O)(O)OP(=O)(O)OCC1OC(n2cnc3c(N)ncnc32)C(O)C1OP(=O)(O)O (stereo not drawn) | > 90.9 | > 100 | > 100 | > 100 | 62.7 | > 100 | > 100 | 99.3 | > 100 | > 100 | – | – | – | – | – | – | – | – | – | – |
| CCCc1c(CC)c(=N)c2ccccc2n1C | > 100 | > 100 | > 100 | > 100 | > 100 | > 100 | > 100 | > 100 | > 100 | > 100 | > 100 | > 100 | 39.3 | 42.6 | 36.3 | > 100 | > 100 | 35.8 | 34.5 | 57 |
| COc1ccc(-c2cc(=O)c3c(C)cc(C)nc3[nH]2)cc1 | 35.4 | > 100 | > 100 | 88 | 54.6 | > 100 | > 100 | > 100 | > 100 | > 100 | – | – | – | – | – | – | – | – | – | 42.5 |
| CSC(CC(=O)O)C(=O)O (stereo not drawn) | > 100 | > 100 | > 100 | > 100 | > 100 | > 100 | > 100 | > 100 | > 100 | > 100 | – | – | – | – | – | – | – | – | – | – |
| CCCCCCCCCCCCCCN | > 100 | > 100 | > 100 | > 100 | > 100 | > 100 | > 100 | > 100 | > 100 | – | – | – | – | – | – | – | – | – | – | – |
